What was measured:
[1] = tested on: lipid peroxidation (LPO) of rat brain homogenate; test: Lipid peroxidation (LPO) of rat brain homogenate, TBARS test; format: biochemical; conditions: substances at 100 μM, mean ± SEM; for % of Activity, Inhibition of LPO, Fe (II): Fe (II)-induced; for % of Activity, Inhibition of LPO, t-BHP: t-BHP-induced
Method: To obtain the brain homogenate, rats preliminarily anesthetized with CO2 were decapitated with a guillotine. The brain was homogenized in a buffer containing KCl (120 mM) and HEPES (20 mM), pH = 7.4 at 4 °C, and centrifuged at 1500 rpm to obtain a supernatant. The protein was quantified according to the standard microbiuret method.
To investigate the effect of the compounds on lipid peroxidation (LPO) of rat brain homogenate, we used the modified version of the TBARS test, which is based on the reaction of 2-thiobarbituric acid with the end LPO product—malonic dialdehyde (MDA). The plate well, according to the experimental scheme, contained the compounds under study (100 μM), rat brain homogenate (2 mg/mL), as well as ferrous iron ions ([…]) at a concentration of 500 μM and 1.6 mM tert-butyl hydroxyperoxide as an initiator. After 30 min of incubation at 37 °C, TBARS reagent was added to all samples, incubated for 90 min at 90 °C, and centrifuged at 6000 rpm for 15 min. The optical density of the selected supernatant was measured on a Victor 3 plate reader (Perkin Elmer) at λ = 540 nm.
A rat brain homogenate preparation containing fragments of cell membranes was used as a model system to investigate the antioxidant activity of the hydroxamic acids. To initiate the process of lipid peroxidation, ferrous ions were used to trigger the Fenton reaction, during which the iron valence changes and a highly reactive hydroxyl radical is formed, and tert-butyl hydroxyperoxide as a direct source of free radicals.

[2] = DPPH test of antiradical activity; conditions: substances at 100 μM, mean ± SEM
Method: The DPPH test was used to examine antiradical activity based on the ability of a stable chromogen radical of 2,2-diphenyl-1-picrylhydrazyl (DPPH) to remove a hydrogen atom, which is accompanied by a change in the absorption maximum in the electronic absorption spectra. The amount of reduced DPPH was measured using a Cytation ™ 3 multifunctional plate analyzer (BioTek Instruments, Inc., Winooski, VT, USA) at a wavelength of 517 nm.
The antiradical activity of the test compounds was evaluated by the DPPH test, based on the ability of antioxidants to donate an electron to the stable chromogen radical DPPH, converting it into a nonradical form and neutralizing its activity. […] The chromogenic free radical DPPH used in this test has a large size, and substances even with a similar chemical structure may have different antiradical properties due to spatially difficult access.

HDAC6 = biological target: T1, HDAC6 (Homo sapiens, UniProt Q9UBN7); test: HDAC6 enzyme activity, FLUOR DE LYS fluorometric kit; format: biochemical; conditions: mean ± SEM; read-out: IC50 HDAC6 Inhibitory Activity
T1 construct: purchased Enzo Life Sciences (Enzo Biochem, New York, NY, USA)
T1 sequence (Q9UBN7 1-1215): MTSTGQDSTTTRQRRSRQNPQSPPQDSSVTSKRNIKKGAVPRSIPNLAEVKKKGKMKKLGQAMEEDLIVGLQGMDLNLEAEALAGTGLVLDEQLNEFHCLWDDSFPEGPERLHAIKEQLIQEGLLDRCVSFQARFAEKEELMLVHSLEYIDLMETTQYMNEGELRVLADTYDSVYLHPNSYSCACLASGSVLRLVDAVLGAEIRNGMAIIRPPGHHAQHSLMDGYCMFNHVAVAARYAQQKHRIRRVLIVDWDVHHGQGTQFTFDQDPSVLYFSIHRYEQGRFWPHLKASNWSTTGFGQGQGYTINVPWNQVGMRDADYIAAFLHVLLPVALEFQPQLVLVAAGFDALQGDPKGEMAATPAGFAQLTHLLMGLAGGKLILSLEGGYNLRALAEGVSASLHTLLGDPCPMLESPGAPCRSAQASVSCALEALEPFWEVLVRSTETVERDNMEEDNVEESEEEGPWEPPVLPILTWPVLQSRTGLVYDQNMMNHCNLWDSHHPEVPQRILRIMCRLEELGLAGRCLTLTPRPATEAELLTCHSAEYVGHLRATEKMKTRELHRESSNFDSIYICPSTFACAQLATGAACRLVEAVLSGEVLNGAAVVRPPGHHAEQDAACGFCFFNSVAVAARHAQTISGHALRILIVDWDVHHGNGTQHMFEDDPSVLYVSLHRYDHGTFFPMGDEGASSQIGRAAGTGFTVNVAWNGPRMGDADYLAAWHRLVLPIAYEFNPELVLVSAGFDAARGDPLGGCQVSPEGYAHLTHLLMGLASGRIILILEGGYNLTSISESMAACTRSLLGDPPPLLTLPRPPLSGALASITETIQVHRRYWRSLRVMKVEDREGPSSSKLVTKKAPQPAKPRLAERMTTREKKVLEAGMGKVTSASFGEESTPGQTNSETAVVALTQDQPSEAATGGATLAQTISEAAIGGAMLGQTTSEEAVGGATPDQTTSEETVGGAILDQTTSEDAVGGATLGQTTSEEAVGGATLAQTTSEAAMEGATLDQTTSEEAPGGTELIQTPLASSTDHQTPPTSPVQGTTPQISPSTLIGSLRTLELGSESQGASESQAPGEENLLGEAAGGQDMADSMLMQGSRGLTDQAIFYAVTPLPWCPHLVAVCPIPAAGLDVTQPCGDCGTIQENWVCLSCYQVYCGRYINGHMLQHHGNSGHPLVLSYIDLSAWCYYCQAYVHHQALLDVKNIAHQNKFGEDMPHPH

β-amyloid 1–40 = β-amyloid 1–40 aggregation, Thioflavin T fluorescence; format: biochemical; conditions: 100 μM, 72 h incubation
Method: (§1) The effect of the studied compounds on the aggregation of β-amyloid (1–40/1–42) was analyzed using the method of recording Thioflavin T fluorescence (10 µM) for 72 h at 37 °C. The fluorescence signal was measured using a multifunctional flatbed analyzer, the Cytation ™ 3 (BioTek Instruments, Inc., Winooski, VT, USA), at λex = 450 nm, λem = 480 nm.
(§2) The effect of hydroxamic acids on the stage of aggregation of the pathological β-amyloid peptide was investigated for 72 h using two model systems—fragments Aβ1–40 and Aβ1–42. The fluorophore Thioflavin T was used as an indicator of the ongoing fibrillation process, the interaction of which with proteins in the state of amyloid fibrils leads to an increase in the fluorescence signal.

β-amyloid 1–42 = tested on: T2, β-amyloid 1–42; test: β-amyloid 1–42 aggregation, Thioflavin T fluorescence; format: biochemical; conditions: 100 μM, 72 h incubation
T2 construct: fragments Aβ1–40 and Aβ1–42
Method: as §1, §2

SH-SY5Y cells = test: MTT cell viability, SH-SY5Y; format: cell-based; conditions: Homo sapiens, MTT test
Method: (§3) The effect of the hydroxamic acids on the viability of cells obtained from human embryonic kidneys, HEK 293, as well as the native form of human neuroblastoma, SH-SY5Y, was evaluated in the MTT test. Using a multifunctional flatbed analyzer, Cytation™3 (BioTek Instruments, Inc., Winooski, VT, USA), the optical density was determined at a wavelength of 530 nm. Based on the dose-dependent curves, the concentration values leading to 50% inhibition of cell population growth (IC50) were calculated.
(§4) Due to the fact that most compounds of the class of hydroxamic acids have high cytotoxic activity and are mainly used as anticancer drugs, their use as neuroprotective drugs is limited. Since the goal of our work was to search for agents for the pharmacological correction of neurodegenerative diseases, a necessary part of the biological activity study of the synthesized hydroxamic acids was to determine their effect on the survival of cell cultures. In our work, we used neuron-like neuroblastoma cells SH-SY5Y and a healthy cell line isolated from the human embryonic kidney, HEK 293.

HEK 293 cells = test: MTT cell viability, HEK 293; format: cell-based; conditions: Homo sapiens, HEK293; HEK-293, MTT test
Method: as §3, §4

| Structure (SMILES) | % of Activity, Inhibition of LPO, Fe (II) [1] | % of Activity, Inhibition of LPO, t-BHP [1] | % of Activity, Antiradical Activity [2] | IC50 (HDAC6) | Effect on β-amyloid 1–40 aggregation (β-amyloid 1–40) | Effect on β-amyloid 1–42 aggregation (β-amyloid 1–42) | IC50 (SH-SY5Y cells) | IC50 (HEK 293 cells) | melting point |
| --- | --- | --- | --- | --- | --- | --- | --- | --- | --- |
| O=C(CCCCCCCC(=O)NC1C2CC3CC(C2)CC1C3)NO (stereo not drawn) [compound 16, N^1-(Adamantan-2-yl)-N^9-Hydroxynonanediamide] | 26.41 ± 2.58% | 16.27 ± 0.42% | - (The ‘-’ mark indicates the lack of activity of the test substances (≤10%) in a particular test) | 0.74 ± 0.01 µM | noticeable fibrillation inhibition | noticeable fibrillation inhibition | > 100 µM | 49.5 ± 3.43 µM | 133.2 °C |
| CC1(C)[C@@H]2CCC1(C)[C@H](NC(=O)/C=C/c1ccc(C(=O)NO)cc1)C2 [compound 23, N-Hydroxy-4-((E)-3-Oxo-3-(((2R,4R)-1,7,7-Trimethylbicyclo[2.2.1]heptan-2-yl)amino)prop-1-en-1-yl)benzamide] | 32.91 ± 1.12% | 18.26 ± 4.90% | 20.14 ± 1.28% | 18 ± 1.02 µM | noticeable fibrillation inhibition | noticeable fibrillation inhibition | 64.2 ± 4.1 µM | 68.3 ± 2.22 µM | 202.5 °C |

From article PMC8623418, “Novel Multitarget Hydroxamic Acids with a Natural Origin CAP Group against Alzheimer’s Disease: Synthesis, Docking and Biological Evaluation” (Pharmaceutics, 2021)
